Earlier results on three compounds are cited in US20020013320A1, “Use of growth hormone secretagogues to treat systemic lupus erythematosus and inflammatory bowel disease” (priority 2000, published 2002).

The conditions of data set [1]: adult female rats.
The conditions of data set [2]: canines during remobilization.
For data set [3] the following is noted: oral treatment, obese young males.

Where a SMILES comes first, the peptide text is derived from it. [ ]: non-standard residue; d: D form. d2Nal = N[C@H](Cc1ccc2ccccc2c1)C(=O)O; Aib = CC(C)(N)C(=O)O

With `CC(C)(N)C(=O)N[C@@H](Cc1c[nH]cn1)C(=O)N[C@H](Cc1ccc2ccccc2c1)C(=O)N[C@H](Cc1ccccc1)C(=O)N[C@@H](CCCCN)C(N)=O` [Ipamorelin] (H-[Aib]H[d2Nal][dF]K-NH2), in data set [1], the bone mass result is listed as “have the capacity to increase bone mass”.

As to `CC(C)(N)C(=O)N[C@H](COCc1ccccc1)C(=O)N1CCC2(CC1)CN(S(C)(=O)=O)c1ccccc12` [MK-0677], in data set [2], the “levels of serum insulin-like growth factor-1” value is recorded as “elevated”; the “size and strength of the quadriceps muscle” value is reported as “increased”. Besides, the “markers of bone formation and bone resorption” value in data set [3] is “increases”.

As to GHRP-6, the bone mass result in data set [1] is reported as “have the capacity to increase bone mass”.
